Laboratory results as given in patent US9884063B2, “Amido-substituted azole compounds” (Bayer Pharma Aktiengesellschaft, priority 2014, dated 2018).

Molecular target: T1, TNKS1 (Homo sapiens, UniProt O95271)
T1 sequence (O95271 1-1327): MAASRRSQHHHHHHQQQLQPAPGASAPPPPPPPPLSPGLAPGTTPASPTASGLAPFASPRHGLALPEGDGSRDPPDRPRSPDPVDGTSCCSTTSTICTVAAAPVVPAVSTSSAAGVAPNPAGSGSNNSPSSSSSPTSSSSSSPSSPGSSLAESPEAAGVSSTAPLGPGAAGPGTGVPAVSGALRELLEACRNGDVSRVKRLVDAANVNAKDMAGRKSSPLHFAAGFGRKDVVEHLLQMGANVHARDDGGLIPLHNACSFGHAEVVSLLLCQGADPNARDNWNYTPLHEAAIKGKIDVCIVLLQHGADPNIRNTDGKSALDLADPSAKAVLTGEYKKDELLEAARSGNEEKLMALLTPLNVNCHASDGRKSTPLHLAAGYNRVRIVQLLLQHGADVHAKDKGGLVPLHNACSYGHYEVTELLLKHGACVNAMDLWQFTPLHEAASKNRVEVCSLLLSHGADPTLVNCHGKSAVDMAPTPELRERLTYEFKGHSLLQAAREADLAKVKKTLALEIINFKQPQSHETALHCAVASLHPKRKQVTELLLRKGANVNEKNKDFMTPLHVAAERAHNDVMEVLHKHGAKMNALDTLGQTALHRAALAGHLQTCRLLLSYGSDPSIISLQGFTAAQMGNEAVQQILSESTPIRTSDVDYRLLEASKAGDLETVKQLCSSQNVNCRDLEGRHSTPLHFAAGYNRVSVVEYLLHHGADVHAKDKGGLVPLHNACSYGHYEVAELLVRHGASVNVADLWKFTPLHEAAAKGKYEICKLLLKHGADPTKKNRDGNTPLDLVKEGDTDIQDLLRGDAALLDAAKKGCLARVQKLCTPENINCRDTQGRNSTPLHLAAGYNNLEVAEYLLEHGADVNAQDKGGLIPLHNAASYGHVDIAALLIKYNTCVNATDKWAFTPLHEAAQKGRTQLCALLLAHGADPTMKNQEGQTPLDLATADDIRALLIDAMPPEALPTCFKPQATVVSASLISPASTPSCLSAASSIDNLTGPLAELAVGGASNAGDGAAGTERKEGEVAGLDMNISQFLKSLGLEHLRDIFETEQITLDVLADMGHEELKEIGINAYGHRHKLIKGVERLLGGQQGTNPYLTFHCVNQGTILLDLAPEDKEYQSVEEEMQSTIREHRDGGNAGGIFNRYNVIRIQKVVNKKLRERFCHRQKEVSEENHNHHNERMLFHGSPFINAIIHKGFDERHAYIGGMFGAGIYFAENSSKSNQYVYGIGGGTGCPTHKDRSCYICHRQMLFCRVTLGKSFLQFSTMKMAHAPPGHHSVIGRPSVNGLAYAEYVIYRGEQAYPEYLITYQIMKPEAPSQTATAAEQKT
Experiment: Modified TNKS1 Assay 2 (auto-parsylation, [3H]-NAD+ SPA)
Type: biochemical
Settings: 6 nM TNKS1, 96 well
Procedure: The potency of selected compounds according to the invention was assessed applying an modified in vitro inhibition assay. Here, the TNKS1 catalyzed NAD^+-dependent ribosylation of the enzyme itself (auto-parsylation) was detected using [^3H]-NAD^+ as substrate and applying the scintillation proximity assay (SPA) method to detect tritium-labeled, parsylated TNKS1. The intensity of the readout signal is proportional to the incorporated [^3H]-NAD^+. Inhibition of TNKS1 leads to a decreased incorporation of [^3H]-NAD^+ and consequently to a lower readout signal intensity. The concentration of a test compound which inhibits the enzyme activity by 50% (corresponds to half of the normed readout signal intensity) is reported as IC50.
The assay was conducted in a 96 well MTP format with the identical TNKS1 enzyme sample and NAD^+ sample as in the histone ribosylation assay with the following modifications: TNKS1 enzyme sample was diluted with a modified assay buffer (50 mM MES pH 7.0, 1 mM DTT, 0.01% Triton X-100) to a final concentration of 6 nM TNKS1 and 10×NAD^+ solution was diluted with the modified assay buffer (s. above) to a final 0.445×NAD^+ solution doped with 100 Bq/ul [^3H]-NAD^+[Catalog #NET443H050UC, Perkin Elmer, Waltham, Mass., USA]. Substrate solution (10 ul) was incubated with different test compound concentrations (2.5 ul in 10% DMSO in modified assay buffer) or control (2.5 ul 10% DMSO in modified assay buffer only) and enzyme (10 ul) over night at room temperature. Incorporated tritium was measured after addition of 50 ul SPA beads (1 mg/ml) [Catalog #RPNQ0095 20 mg/ml, Perkin Elmer, Waltham, Mass., USA; diluted 1:10 with Dulbecco's phosphate buffered saline, PBS Catalog #D8537, Sigma-Aldrich, Steinheim, Germany] and detection of the photon emission with a beta count plate reader [Wallac MicroBeta®, Perkin Elmer, Waltham, Mass., USA].

Row | SMILES | IC50
1 | O=C(Nc1ccc(NC(=O)c2ocnc2C(=O)NCCN2CCC(F)(F)CC2)cc1)c1ccc(F)cc1Cl [Example 218, N^5-{4-[(2-chloro-4-fluorobenzoyl)amino]phenyl}-N^4-[2-(4,4-difluoropiperidin-1-yl)ethyl]-1,3-oxazole-4,5-dicarboxamide] | 70 nM
2 | CNC(=O)c1nc[nH]c1C(=O)Nc1ccc(NC(=O)c2ccc(O)cc2Cl)cc1 [Example 122, N^5-{4-[(2-chloro-4-hydroxybenzoyl)amino]phenyl}-N^4-methyl-1H-imidazole-4,5-dicarboxamide] | 950 nM
3 | O=C(Nc1ccc(NC(=O)c2nc[nH]c2C(=O)NCCN2CCC2)cc1)c1ccc(F)cc1 [Example 199, N^5-[2-(azetidin-1-yl)ethyl]-N^4-{4-[(4-fluorobenzoyl)amino]phenyl}-1H-imidazole-4,5-dicarboxamide] | 60 nM
4 | CNC(=O)c1nc[nH]c1C(=O)Nc1ccc(NC(=O)c2ccc(F)cc2)cc1 [Example 20, N^5-{4-[(4-fluorobenzoyl)amino]phenyl}-N^4-methyl-1H-imidazole-4,5-dicarboxamide] | > 10000 nM
5 | CN1CCN(C(C)(C)CNC(=O)c2[nH]cnc2C(=O)Nc2ccc(NC(=O)c3ccc(F)cc3Cl)cc2)CC1 [Example 187, N^4-{4-[(2-chloro-4-fluorobenzoyl)amino]phenyl}-N^5-[2-methyl-2-(4-methylpiperazin-1-yl)propyl]-1H-imidazole-4,5-dicarboxamide] | 50 nM
6 | CNC(=O)c1nc[nH]c1C(=O)Nc1ccc(NC(=O)c2cc(OC)c(OC)cc2Cl)cc1 [Example 240, N^5-{4-[(2-chloro-4,5-dimethoxybenzoyl)amino]phenyl}-N^4-methyl-1H-imidazole-4,5-dicarboxamide] | 8 nM
7 | CNC(=O)c1nc[nH]c1C(=O)Nc1ccc(NC(=O)c2ccc(Cl)cc2Cl)cc1 [Example 9, N^5-{4-[(2,4-dichlorobenzoyl)amino]phenyl}-N^4-methyl-1H-imidazole-4,5-dicarboxamide] | 150 nM
8 | CNC(=O)c1nc[nH]c1C(=O)Nc1ccc(NC(=O)c2c(F)cc(F)cc2Cl)cc1 [Example 118, N^5-{4-[(2-chloro-4,6-difluorobenzoyl)amino]phenyl}-N^4-methyl-1H-imidazole-4,5-dicarboxamide] | 80 nM
9 | CCNC(=O)c1nc[nH]c1C(=O)Nc1ccc(NC(=O)c2ccccc2S(C)(=O)=O)cc1 [Example 257, N^4-ethyl-N^5-(4-{[2-(methylsulfonyl)benzoyl]amino}phenyl)-1H-imidazole-4,5-dicarboxamide] | 7800 nM
10 | CNC(=O)c1nc[nH]c1C(=O)Nc1ccc(NC(=O)c2ccccc2C(F)F)cc1 [Example 241, N^5-(4-{[2-(difluoromethyl)benzoyl]amino}phenyl)-N^4-methyl-1H-imidazole-4,5-dicarboxamide] | 2500 nM
11 | CCNC(=O)c1nc[nH]c1C(=O)Nc1ccc(NC(=O)c2ccc(OCC)cc2Cl)cc1 [Example 259, N^5-{4-[(2-chloro-4-ethoxybenzoyl)amino]phenyl}-N^4-ethyl-1H-imidazole-4,5-dicarboxamide] | 300 nM
12 | CNC(=O)c1nc[nH]c1C(=O)Nc1ccc(NC(=O)c2ccc(OCCN3CCN(C)CC3)cc2Cl)cc1 [Example 28, N^5-[4-({2-chloro-4-[2-(4-methylpiperazin-1-yl)ethoxy]benzoyl}amino)phenyl]-N^4-methyl-1H-imidazole-4,5-dicarboxamide] | 60 nM
13 | CN(C)C(=O)c1nc[nH]c1C(=O)Nc1ccc(NC(=O)c2ccc(F)cc2Cl)cc1 [Example 24, N^5-{4-[(2-chloro-4-fluorobenzoyl)amino]phenyl}-N^4,N^4-dimethyl-1H-imidazole-4,5-dicarboxamide] | 2600 nM
14 | CNC(=O)c1nc[nH]c1C(=O)Nc1ccc(NC(=O)c2ccccc2OC(F)(F)F)cc1 [Example 243, N^4-methyl-N^5-(4-{[2-(trifluoromethoxy)benzoyl]amino}phenyl)-1H-imidazole-4,5-dicarboxamide] | > 10000 nM
15 | CNC(=O)c1nc[nH]c1C(=O)Nc1ccc(NC(=O)c2cccc(OC)c2Cl)cc1 [Example 252, N^5-{4-[(2-chloro-3-methoxybenzoyl)amino]phenyl}-N^4-methyl-1H-imidazole-4,5-dicarboxamide] | 9300 nM
16 | CC(C)(CNC(=O)c1[nH]cnc1C(=O)Nc1ccc(NC(=O)c2ccccc2Cl)cc1)N1CCCCC1 [Example 165, N^4-{4-[(2-chlorobenzoyl)amino]phenyl}-N^5-[2-methyl-2-(piperidin-1-yl)propyl]-1H-imidazole-4,5-dicarboxamide] | 30 nM
17 | O=C(Nc1ccc(NC(=O)c2nc[nH]c2C(=O)NCCCCN2CCCCC2)cc1)c1ccccc1Cl [Example 189, N^4-{4-[(2-chlorobenzoyl)amino]phenyl}-N^5-[4-(piperidin-1-yl)butyl]-1H-imidazole-4,5-dicarboxamide] | 220 nM
18 | O=C(Nc1ccc(NC(=O)c2nc[nH]c2C(=O)NCCN2CCCC2)cc1)c1ccc(F)cc1 [Example 176, N^4-{4-[(4-fluorobenzoyl)amino]phenyl}-N^5-[2-(pyrrolidin-1-yl)ethyl]-1H-imidazole-4,5-dicarboxamide] | 50 nM
19 | CN1CCN(CCNC(=O)c2[nH]cnc2C(=O)Nc2ccc(NC(=O)c3ccccc3Cl)cc2)CC1 [Example 160, N^4-{4-[(2-chlorobenzoyl)amino]phenyl}-N^5-[2-(4-methylpiperazin-1-yl)ethyl]-1H-imidazole-4,5-dicarboxamide] | 80 nM
20 | CNC(=O)c1nc[nH]c1C(=O)Nc1ccc(NC(=O)c2cc(OCCN3CCN(C)CC3)ccc2Cl)cc1 [Example 124, N^5-[4-({2-chloro-5-[2-(4-methylpiperazin-1-yl)ethoxy]benzoyl}amino)phenyl]-N^4-methyl-1H-imidazole-4,5-dicarboxamide] | > 10000 nM
21 | CNC(=O)c1nc[nH]c1C(=O)Nc1ccc(NC(=O)c2ccc(N(C)C)cc2Cl)cc1 [Example 4, N^5-(4-{[2-chloro-4-(dimethylamino)benzoyl]amino}phenyl)-N^4-methyl-1H-imidazole-4,5-dicarboxamide] | 80 nM
22 | O=C(Nc1ccc(NC(=O)c2nc[nH]c2C(=O)NCCCN2CCOCC2)cc1)c1ccc(F)cc1 [Example 206, N^4-{4-[(4-fluorobenzoyl)amino]phenyl}-N^5-[3-(morpholin-4-yl)propyl]-1H-imidazole-4,5-dicarboxamide] | 4100 nM
23 | CC(C)CNC(=O)c1[nH]cnc1C(=O)Nc1ccc(NC(=O)c2ccc(F)cc2Cl)cc1 [Example 147, N^4-{4-[(2-chloro-4-fluorobenzoyl)amino]phenyl}-N^5-isobutyl-1H-imidazole-4,5-dicarboxamide] | 110 nM
24 | CC1CCCN(CCNC(=O)c2[nH]cnc2C(=O)Nc2ccc(NC(=O)c3ccc(F)cc3Cl)cc2)C1 (stereo not drawn) [Example 208, N^4-{4-[(2-chloro-4-fluorobenzoyl)amino]phenyl}-N^5-[2-(3-methylpiperidin-1-yl)ethyl]-1H-imidazole-4,5-dicarboxamide] | 3 nM
